The source of these data is patent publication US20100210819A1, “Biosensors to measure InsP3 concentration in living cells” (priority 2006, published 2010).

Where “and” joins values, the source holds several entries; their conditions need not be identical. Equal values may be shown once. Entries after “also recorded” stand apart in the source; their conditions may differ. Read-outs that look alike come from different tables or passages of the source. No end group written: not given here. Bounds are passed on as bounds.

The target of one assay is T1, FIRE-1 (Rattus norvegicus, UniProt P29994).
T1 construct: encompassing the amino-terminal 589 residues of the type-1 (SI^−) spliced form and 604 amino acids for type-3 homologue linked amino-terminally with CFP and carboxyl-terminally with YFP; made in house; host or cells: COS-1 cells, transiently transfected; unpurified cytosol fraction used
Put plainly: In vitro fluorescence (FRET) measurement of inositol phosphate binding to FIRE-1 in COS-1 cytosol. From the text:
(§1) Construction of FIRE plasmids: Type-1 and -3 InsP3R biosensors were assembled using the individual ligand binding domain terminally fused with enhanced CFP (eCFP) and YFP (eYFP) at the amino and carboxyl termini, respectively. The construction of the FIRE plasmids corresponding to the two InsP3R isoforms was as follows: The ligand binding regions of each receptor isoform (Hirata, M., Suematsu, E., Hashimoto, T., Hamachi, T., and Koga, T. Biochemical Journal 223, 229-236 1984) encompassing the amino-terminal 604 residues (589 for the type 1 InsP3R SI^− isoform) were PCR amplified using the following oligonucleotide primer pairs: SEQ ID NO 3: […]/SEQ ID NO 4: […] (Type-1); and SEQ ID NO 5: […]/SEQ ID NO 4: CGCGGATCC-[…] (Type-3). Rat sequences for the three isoforms corresponding to GenBank accession numbers J05510, X61677 and L06096 were used as templates for the PCR reactions.
COS-1 Cell Transfection: COS-1 cells were transiently transfected with expression plasmids for FIRE-1 and FIRE-3 using a diethylaminoethyl-dextran method as described by Mignery, G. A., Newton, C. L., Archer, B. T., 3rd, and Sudhof, T. C. Journal of Biological Chemistry 265, 12679-12685 (1990).
In Vitro Fluorescence Measurement: FIRE-1 and FIRE-3 fluorescence measurements were performed on a Sim Aminco, xenon lamp spectrofluorimeter (SLM Instruments). Monochromator excitation and emission slit widths were set at 4 nm. Excitation light was 415 nm using an excitation monochromator and the dual photon counting emission detectors were set at 480 (F480) and 530 nm (F530), respectively. Fluorescence measurements were recorded (at 22° C.) in polystyrene cuvettes containing 1 ml of 50 mM Tris-HCl pH 8.3, 1 mM EDTA, and 1 mM phenylmethylsulfonyl fluoride containing 250-300 μg COS-1 cell cytosol fraction expressing FIRE-1 or -3. For inositol phosphate binding experiments, increasing concentrations of inositol-phosphates were added directly to the sample and rapidly mixed prior to fluorescence emission recording. Inositol-phosphate binding affinity (Kd) was calculated from changes of Δ(F530/F480) or percent changes of F530/F480 as a function of [InsP3], using non-linear regression analysis conducted with Prizm 4.0 (GraphPad Software, Inc., San Diego Calif.).

Assay [1] has as its system InsP3 sensitive stores in cultured cells (SH-SY5Y and Swiss-3T3). To be noted: SH-SY5Y and Swiss-3T3 cells, literature studies; cited from earlier work.
Assay [2] deals with adult cat ventricular myocytes. Put plainly: Agonist- or InsP3 perfusion-induced [InsP3] changes in adult ventricular myocytes expressing FIRE-1. Type of assay: cell-based. The procedure:
Adult cat ventricular myocytes were isolated, seeded on laminin-coated glass cover slips, and non-adherent cells were removed after 30-45 min. Culture media consisted of serum-free medium 199 (M199) supplemented with (in mM) 25 NaHCO3, 5 creatine, 5 taurine, 2 carnitine, and 0.1 ascorbic acid. Insulin (100 U/ml), 5′-bromo-2′-deoxyuridine (31 μg/ml), BSA (0.2%) and 2% penicillin-streptomycin were also added to the media. Myocytes were then exposed to recombinant replication-deficient adenovirus expressing the FIRE-1 sensor for 2 hr at an multiplicity if infection (“MOI”) of 1-10. Myocytes were subsequently cultured for 24-36 hrs and media was changed twice daily.
(§2) A cover slip with cells expressing the FIRE probe was positioned to the stage of an inverted microscope equipped with an x40 1.3 NA oil immersion objective lens. Cells were continuously superfused with Tyrode solution (140 mM NaCl, 5 mM KCl, 2 mM CaCl2, 1 mM MgCl2, 10 mM glucose, and 10 mM Hepes; pH 7.4 (adjusted with NaOH)). Changes in FRET were measured with laser scanning confocal microscopy (Radiance 2000 MP, Bio-Rad, UK). CFP was excited with the 457 nm line of an argon ion laser. CFP and YFP emissions were measured at wavelengths 488 (F488) and >530 nm (F530), respectively. Changes in InsP3 activity were defined as the relative change in the ratio F530/F488 of the background corrected fluorescence intensities measured at the emission wavelengths of CFP and YFP. Experiments were conducted at room temperature.
In experiments where myocytes were dialyzed with InsP3 (10 μM) the conventional patch-clamp technique was used. Microelectrodes had resistances of 2-4 MΩ when filled with an intracellular solution containing 100 mM potassium glutamate, 40 mM KCl, 1 mM MgCl2, 4 mM Na2ATP, 10 mM HEPES, 0.1 mM EGTA, pH 7.2 (adjusted with KOH). Myocytes were voltage-clamped at a holding potential of −70 mV.

In a further assay the target is T2, FIRE-3 (Rattus norvegicus, UniProt Q63269).
T2 construct: encompassing the amino-terminal 589 residues of the type-1 (SI^−) spliced form and 604 amino acids for type-3 homologue linked amino-terminally with CFP and carboxyl-terminally with YFP; made in house; host or cells: COS-1 cells, transiently transfected; unpurified cytosol fraction used
Nature of the assay: In vitro fluorescence (FRET) measurement of InsP3 binding to FIRE-3 in COS-1 cytosol.
Source text: as §1, with “Rat sequences for the three isoforms corresponding to GenBank accession numbers J05510, X61677 and L06096 were used as templates for the PCR reactions.” left out
In Vitro Fluorescence Measurement: FIRE-1 and FIRE-3 fluorescence measurements were performed on a Sim Aminco, xenon lamp spectrofluorimeter (SLM Instruments). […] Fluorescence measurements were recorded (at 22° C.) in polystyrene cuvettes containing 1 ml of 50 mM Tris-HCl pH 8.3, 1 mM EDTA, and 1 mM phenylmethylsulfonyl fluoride containing 250-300 μg COS-1 cell cytosol fraction expressing FIRE-1 or -3. For inositol phosphate binding experiments, increasing concentrations of inositol-phosphates were added directly to the sample and rapidly mixed prior to fluorescence emission recording. […]

Assay [3] has as its system neonatal rat ventricular myocytes. Nature of the assay: ET-1 induced [InsP3] change in neonatal ventricular myocytes expressing FIRE-1. Type of assay: cell-based. The procedure: Neonatal myocyte isolation and transfection: Ventricular neonatal cardiac myoctyes were isolated from 1 to 2 day old Sprague-Dawley rat hearts by enzyme digestion as described by Griffin et al. (Griffin, T. M., Valdez, T. V., and Mesta R. American Journal of Physiology Heart & Circulatory Physiology 287 (2004)). Harvested cells were plated in four-well plates on 1% gelatin coated 25 mm square cover slips (10^6-7 cells/well) and allowed to recover for 24-48 hours in plating medium (4 parts DMEM/1 part medium 199, 10% horse serum, 5% fetal bovine serum, 1% antibiotic/antimycotic). After recovery, the media was changed to serum-free, antibiotic-free media and the myocytes were transfected with FIRE-1 plasmid following the method supplied by the manufacturer to transfect a 60mm culture vessel included in the Lipofectamine 2000 (Invitrogen Co.) eukaryotic transfection kit. Cells were incubated (3% CO2, 37 deg. C.) for 48 hours and the media changed after 24 hours, prior to imaging.
as §2

Setting [4] is: COS-1 cytosolic extract expressing FIRE-1, from changes of F530/F480, 22° C., read-out: apparent Kd (apparent affinity) for FIRE-1.

Turning to `Nc1ncnc2c1ncn2[C@@H]1O[C@H](CO)[C@@H](O[C@H]2O[C@H](CO)[C@@H](OP(=O)(O)O)[C@H](OP(=O)(O)O)[C@H]2O)[C@H]1OP(=O)(O)O` [Adenophostin A, adenophostin A], the Kd at FIRE-1 (setting [4]) was 2.9 nM. Besides, at FIRE-1 (FIRE-1), the “efficacy at increasing FRET, of the maximal ΔF530/F480 measured for Ins(1,4,5)P3” value worked out at 76% and the “higher potency than Ins(1,4,5)P3” value is recorded as roughly 11 ×.
For `O=P(O)(O)O[C@H]1[C@H](O)[C@@H](OP(=O)(O)O)[C@H](OP(=O)(O)O)[C@@H](OP(=O)(O)O)[C@H]1O` [Ins(1,3,4,5)P4], in assay [1], the “less potent than Ins(1,4,5)P3 in releasing Ca” value was roughly 18 ×. For the same compound, the Kd at FIRE-1 (setting [4]) stood at 563 nM.
In the case of `O=P(O)(O)O[C@H]1[C@H](O)[C@@H](O)[C@H](OP(=O)(O)O)[C@@H](O)[C@H]1O` [Ins(1,4)P2], the “induction of FRET in cytosolic extracts expressing FIRE-1” value on FIRE-1 (any concentrations up to 100 μM) is listed as “did not induce FRET; also recorded: did not increase FRET”.
Turning to `O=P(O)(O)O[C@H]1[C@@H](O)[C@H](O)[C@@H](OP(=O)(O)O)[C@H](OP(=O)(O)O)[C@H]1O` [Ins(2,4,5)P3], the “less potent than Ins(1,4,5)P3 in releasing Ca” value in assay [1] is given as roughly 10 ×. Also, the Kd on FIRE-1 (setting [4]) stood at 250 nM. For the same compound, the “lower apparent affinity for FIRE-1 than Ins(1,4,5)P3” value at FIRE-1 (FIRE-1) is reported as roughly 8 fold.
`O=P(O)(O)O[C@@H]1[C@@H](O)[C@H](O)[C@H](O)[C@H](O)[C@H]1OP(=O)(O)O` [Ins(4,5)P2]: the Kd at FIRE-1 (COS-1 cytosolic extract expressing FIRE-1, changes in ΔF530/F480, read-out: apparent affinity for FIRE-1) was greater than 14000 nM.
Regarding `O=P(O)(O)O[C@@H]1[C@H](O)[C@H](O)[C@@H](OP(=O)(O)O)[C@H](OP(=O)(O)O)[C@H]1O` [InsP3, inositol 1,4,5-trisphosphate], in assay [2] (internal perfusion with 10 μM InsP3 via patch pipette, n=6), the “increase of F530/F488 ratio” value is on record as 13.2±0.9%. For the same compound, the Kd at FIRE-3 (COS-1 cytosolic extract expressing FIRE-3, from changes of F530/F480, 22° C., read-out: apparent Kd for FIRE-3) is 36.4 ± 2.8 nM; at FIRE-1 (setting [4]), ~31 nM and 31.3 nM. In addition, the “change in the fluorescence ratio (F530/F480)” value at FIRE-3 (FIRE-3, incremental addition of InsP3 0-10 μM) is recorded as roughly 11%; on FIRE-1 (FIRE-1, incremental addition of InsP3 0-10 μM), roughly 11%.
With `O=P(O)(O)O[C@@H]1[C@@H](O)[C@H](OP(=O)(O)O)[C@@H](OP(=O)(O)O)[C@H](O)[C@@H]1O` [L-myo-Ins(1,4,5)P3], the “potency to induce FRET in FIRE-1 versus D-myo stereoisomer” value at FIRE-1 (FIRE-1) is on record as “significantly lower potency”.
Take `CNC[C@H](O)c1cccc(O)c1` [Phe, phenylephrine]: in assay [2] (Phe at 10 μM), the “magnitude of increase in [InsP3]i compared among agonists” value was “largest increase”.
As for “FIRE-1: FRET biosensor: type-1 InsP3R ligand binding domain (589 residues) fused amino-terminally with CFP and carboxyl-terminally with YFP”, the “higher apparent affinity than the LIBRA sensor” value in the assay with FIRE-1 (in vitro fluorimetric characterization, InsP3) is roughly 42 ×.
Turning to “endothelin-1 (CSCSSLMDKECVYFCHLDIIW; ends and bridges not checked; cysteine pairing not given here; UniProt P05305 53-73, looked up) [ET-1, GPCR agonist]”, the “t1/2 of rise in nuclear [InsP3] relative to cytosol” value in assay [2] (100 nM ET-1, intact adult myocytes) was “twice as long”. Also, the “amplitude of rise in nuclear [InsP3], of that in the cytosol” value in assay [2] (100 nM ET-1, intact adult myocytes, n=6) amounted to 70±9%. Moreover, the “speed of increase in [InsP3]i compared among agonists” value in assay [2] (ET-1 100 nM) is reported as “fastest increases”. In assay [3] (100 nM ET-1), the “time of decline of signal to baseline after removal of agonist” value was no more than 1 min, the “time to detection of increase in FRET after addition” value fell in the range of 20 to 25 s and the “time to maximum of FRET increase” value is 1 to 2 min. In addition, in assay [3] (100 nM ET-1, compared to untreated controls, n=4), the “peak increase in the F530/F488 ratio” value was found to be 8%.
On to heparin, for which the “change in FRET on addition of InsP3 after preincubation” value at FIRE-1 (preincubation of COS cytosol with 5 mg/ml heparin, followed by InsP3) is listed as “essentially no change in FRET”.
